Reference: patent US20080004290A1, “Anti-Cancer Agents” (THE UNIVERSITY OF QUEENSLAND, priority 2003, published 2008)
Like-named read-outs stand apart in the source and are kept apart here.

How the values were obtained:
MM96L melanoma cells = assay: Cell survival assay (clonogenic survival, SRB); assay type: cell-based, human; details: for SI (Selectivity Index = IC50 (NFF)/IC50 (MM96L)): NFF vs MM96L
Procedure: (§1) The cytotoxicities of the compounds of the invention were determined by clonogenic survival of human cancer cells (MM96L, melanoma) and human normal cells (NFF, neonatal foreskin fibroblasts). Cells were incubated with the compounds at various concentrations of compound (0.01-10 μg/mL) for 24 hours, washed, and then grown for a further four days in the absence of hydroxamic acid before determining cell survival by cell count. The final readout involved staining with sulforhodamine B (SRB), a cost-effective method amenable to automation and high throughput analysis. At the technical level, “cell sensitivity” is often inferred from short term (1-2 day) observations such as apoptosis, which may not be a satisfactory model of clonogenic survival.
(§2) Cell Lines and Culture Medium. All cell lines used in this study have been described previously (Parsons et al., 1986; Todaro et al., 1980; Glenn et al., 2004). All cell lines were cultured in 10% heat-inactivated foetal calf serum (CSL, Australia) in RPMI 1640 medium supplemented with 100 U/mL penicillin, 100 μg/mL streptomycin, and 3 mM HEPES at 5% CO2, 99% humidity at 37° C. Primary human fibroblasts were obtained from neonatal foreskins and cultured in the above medium. Routine mycoplasma tests were performed using Hoechst stain^i and were always negative.
(§3) Cell Survival Assay. Cells were plated into 96-well microtitre plates at 5×10^3 cells/well, and allowed to adhere overnight. Test compounds were added to culture medium at the indicated concentrations, and plates incubated in the above conditions for 24 hours. Following this incubation period, compounds and media were removed, and replaced with fresh culture medium. Cells were then grown for a further 72 hours before assay using sulforhodamine B (SRB; Sigma, St. Louis, Mo.) as previously described. Briefly, the culture medium was removed from the 96-well microtitre plates and the plates washed twice with phosphate buffered saline (PBS), before the cells were fixed with methylated spirits for 15 minutes. The plates were then rinsed with tap water and the fixed cells stained with 50 μL/well of SRB solution (0.4% sulforhodamine B (w/v) in 1% (v/v) acetic acid) over a period of 1 hour. The SRB solution was then removed from the wells and the plates rapidly washed two times with 1% (v/v) acetic acid. Protein bound dye was then solubilised with the addition of 100 μL of 10 mM unbuffered Tris, and incubated for 15 min at 25° C. Plates were then read at 564 nm on a VERSA max tunable microplate reader (Molecular Devices, Sunnyvale, Calif.).

[1] = test system: NFF, neonatal foreskin fibroblasts; assay: Cell survival assay (clonogenic survival, SRB), normal cells; assay type: cell-based, human; details: SRB
Procedure: as §1, §2, §3

[2] = Homo sapiens, MM96L, MM96L melanoma, 24 h with compound, further 72 h growth, SRB, read-out: IC50 (uM) MM96L
[3] = Homo sapiens, MM96L, most preferred compounds, exemplary examples, read-out: potency of IC50 against the MM96 melanoma cells
[4] = Homo sapiens, Fibroblast, NFF normal fibroblasts, 24 h with compound, further 72 h growth, read-out: IC50 (uM) NFF
[5] = Table 5, 24 hours with compound, further growth, SRB, read-out: IC50 MM96L
[6] = Table 5, Selectivity Index = IC50 (NFF)/IC50 (MM96L)
[7] = Table 5, 24 hours with compound, further growth, read-out: IC50 NFF
[8] = Table 6, IC50 (NFF)/IC50 (MM96L)
[9] = Homo sapiens, MM96L, 24 h, Table 6, 24 hours with compound, further growth, SRB, read-out: IC50 (μM) MM96L
[10] = Homo sapiens, Fibroblast, 24 h, Table 6, 24 hours with compound, further growth, read-out: IC50 (μM) NFF
[11] = Table 8, 24 hours with compound, further growth, SRB, read-out: IC50 (μM) MM96
[12] = Table 8, IC50 (NFF)/IC50 (MM96L)
[13] = Table 8, 24 hours with compound, further growth, read-out: IC50 (μM) NFF

SMILES: O=C(CCCCC[C@H](NC(=O)OCc1ccccc1)C(=O)Nc1ccc(-c2ccccc2)cc1)NO [Example 160]
- IC50 (MM96L melanoma cells; [2]): 0.331 µM
- IC50 (MM96L melanoma cells; [3]): ≤ 0.5 µM
- SI (Selectivity Index = IC50 (NFF)/IC50 (MM96L)) (MM96L melanoma cells): 6.7
- IC50 [1, 4]: 2.21 µM

SMILES: COc1cc(OC)cc(C(=O)N[C@@H](CSCCCC(=O)NO)C(=O)NCc2ccccc2)c1 [Example 30]
- IC50 (MM96L melanoma cells; [5]): 1.7 ± 0.3 µM
- Selectivity (MM96L melanoma cells; [6]): 2.6
- IC50 [1, 7]: 4.5 ± 0.6 µM

SMILES: CN(C)c1ccc(C(=O)NC(CSCCCC(=O)NO)C(=O)NC(C)(C)C)cc1 (centres unmarked) [Example 96]
- IC50 (MM96L melanoma cells; Table 6, 24 hours with compound, further growth, SRB, read-out: IC50 (μM) MM96L): 0.7 ± 0.2 µM
- Selectivity (MM96L melanoma cells; [8]): 5.0
- IC50 ([1]; Table 6, 24 hours with compound, further growth, read-out: IC50 (μM) NFF): 3.5 ± 0.5 µM

SMILES: CN(C)c1ccc(C(=O)N[C@@H](CSCCCC(=O)NO)C(=O)N(Cc2ccccc2)Cc2ccccc2)cc1 [Example 74]
- IC50 (MM96L melanoma cells; [9]): 2.3 ± 0.2 µM
- Selectivity (MM96L melanoma cells; [8]): 6.5
- IC50 [1, 10]: 15.3 ± 0.6 µM

SMILES: CN(C)c1ccc(C(=O)N[C@@H](CSCCCC(=O)NO)C(=O)Nc2cccc3scnc23)cc1 [Example 69]
- IC50 (MM96L melanoma cells; [9]): 1.3 ± 0.1 µM
- Selectivity (MM96L melanoma cells; [8]): 2.5
- IC50 [1, 10]: 3.3 ± 0.3 µM

SMILES: CN(C)c1ccc(C(=O)N[C@@H](CCCCCC(=O)NO)C(=O)NCc2ccccn2)cc1 [Example 127]
- IC50 (MM96L melanoma cells; [2]): 3.6 ± 0.4 µM
- SI (Selectivity Index = IC50 (NFF)/IC50 (MM96L)) (MM96L melanoma cells): 9.1
- IC50 [1, 4]: 33 ± 5 µM

SMILES: CC(C)NC(=O)c1ccc(CNC(=O)[C@H](CSCCCC(=O)NO)NC(=O)c2ccc(N(C)C)cc2)cc1 [Example 103]
- IC50 (MM96L melanoma cells; [11]): 1.38 µM
- Selectivity (MM96L melanoma cells; [12]): 7.30
- IC50 [1, 13]: 10.1 µM

SMILES: CN(C)c1ccc(C(=O)N[C@@H](CSCCCC(=O)NO)C(=O)Nc2ccc3cc4ccccc4cc3c2)cc1 [Example 72]
- IC50 (MM96L melanoma cells; [9]): 0.55 ± 0.07 µM
- Selectivity (MM96L melanoma cells; [8]): 2.1
- IC50 [1, 10]: 1.14 ± 0.06 µM

SMILES: CN(C)c1ccc(C(=O)N[C@@H](CSCCCC(=O)NO)C(=O)NC2CCCC2)cc1 [Example 89]
- IC50 (MM96L melanoma cells; [9]): 1.5 ± 0.1 µM
- Selectivity (MM96L melanoma cells; [8]): 1.7
- IC50 [1, 10]: 2.6 ± 0.3 µM

SMILES: O=C(CCCSC[C@H](NC(=O)Cc1cccc([N+](=O)[O-])c1)C(=O)NCc1ccccc1)NO [Example 41]
- IC50 (MM96L melanoma cells; [5]): 12 ± 1 µM
- Selectivity (MM96L melanoma cells; [6]): >8
- IC50 [1, 7]: > 100 µM

SMILES: CN(C)c1ccc(C(=O)N[C@@H](CSCCCC(=O)NO)C(=O)NCc2ccccn2)cc1 [Example 82]
- IC50 (MM96L melanoma cells; [9]): 1.2 ± 0.1 µM
- Selectivity (MM96L melanoma cells; [8]): 5.5
- IC50 [1, 10]: 6.5 ± 0.3 µM

SMILES: CN(C)c1ccc(C(=O)N[C@@H](CSCCCC(=O)NO)C(=O)Nc2ccccc2-c2ccccc2)cc1 [Example 62]
- IC50 (MM96L melanoma cells; [9]): 2.1 ± 0.2 µM
- Selectivity (MM96L melanoma cells; [8]): 2.1
- IC50 [1, 10]: 4.4 ± 0.6 µM

SMILES: O=C(CCCCC[C@H](NC(=O)c1ccc(Br)cc1)C(=O)NCc1ccccc1)NO [Example 136]
- IC50 (MM96L melanoma cells; [2]): 1.99 µM
- SI (Selectivity Index = IC50 (NFF)/IC50 (MM96L)) (MM96L melanoma cells): 4.2
- IC50 [1, 4]: 5.86 µM

SMILES: CN(C)c1ccc(C(=O)N[C@@H](CSCCCC(=O)NO)C(=O)Nc2cccc3c2CCCC3)cc1 [Example 66]
- IC50 (MM96L melanoma cells; [9]): 0.5 ± 0.1 µM
- IC50 (MM96L melanoma cells; [3]): ≤ 0.5 µM
- Selectivity (MM96L melanoma cells; [8]): 4.4
- IC50 [1, 10]: 2.2 ± 0.3 µM

SMILES: O=C(CCCSC[C@H](NC(=O)c1cc2ccccc2cc1O)C(=O)NCc1ccccc1)NO [Example 39]
- IC50 (MM96L melanoma cells; [5]): 13 ± 2 µM
- Selectivity (MM96L melanoma cells; [6]): >8
- IC50 [1, 7]: > 100 µM

SMILES: CN(C)c1ccc(C(=O)N[C@@H](CSCCCC(=O)NO)C(=O)NCc2ccc(C(=O)NCCCCCCO)cc2)cc1 [Example 105]
- IC50 (MM96L melanoma cells; [11]): 4.26 µM
- Selectivity (MM96L melanoma cells; [12]): 4.0
- IC50 [1, 13]: 17 µM

SMILES: CN(C)c1ccc(C(=O)N[C@@H](CSCCCC(=O)NO)C(=O)Nc2cccc3cccnc23)cc1 [Example 68]
- IC50 (MM96L melanoma cells; [9]): 0.61 ± 0.08 µM
- Selectivity (MM96L melanoma cells; [8]): 5.0
- IC50 [1, 10]: 3 ± 0.3 µM

SMILES: O=C(CCCSC[C@H](NC(=O)Cc1ccc(-c2ccccc2)cc1)C(=O)NCc1ccccc1)NO [Example 42]
- IC50 (MM96L melanoma cells; [5]): 12 ± 3 µM
- Selectivity (MM96L melanoma cells; [6]): 1.8
- IC50 [1, 7]: 21 ± 2 µM
